{"source": "patent US20130266636A1", "about": "“METHODS FOR BLOCKING CELL PROLIFERATION AND TREATING DISEASES AND CONDITIONS RESPONSIVE TO CELL GROWTH INHIBITION” (THE REGENTS OF THE UNIVERSITY OF CALIFORNIA, priority 2010, published 2013)", "key": {"[1]": {"tested_on": "MDA-MB-231 human breast carcinoma cells", "assay": "Cells in pro-metaphase in orthotopic breast tumor xenografts", "assay_type": "in vivo, mice", "conditions": "systemic KG5 50 mg/Kg, after three days", "source_text": "FIG. 34. CRAF is required for mitotic progression: (a) Cell cycle analysis of WT and CRAF−/− MEFs. Left graph, Cells in G2/M were quantified by flow cytometry. Right graph, Cells at pro-metaphase were quantified using confocal microscopy. Error bars represent s.d. (n=4); * two tailed p value=0.0079 (left graph) and p=0.0055 (right graph) using a Mann Whitney U test. (b) WT and CRAF−/− MEFs were synchronized at pro-metaphase with a thymidine-nocodazole block as described in these Methods, and subsequently released from the blockade and allowed to progress through mitosis. Quantification of cells in G2/M was performed by flow cytometry. Error bars represent s.d. (n=3). (c) Confocal microscopy images of WT and CRAF−/− cells progressing through mitosis at 0, 60 and 360 minutes after release from pro-metaphase blockade. Cells were stained for α-tubulin (in red) and DNA (TOPRO-3™ in blue). Scale bar, 10 μm. […] Cell cycle analysis and quantification of cells in G2/M was performed by flow cytometry. […] (e) Immunohistochemical staining of phospho-5338 CRAF and phospho-histone H3 (mitotic marker) in orthotopic breast and tumor xenografts untreated or treated systemically with KG5 (50 mg/Kg for 3 days Scale bar, 50 μm. […]. Circles indicate cells in pro-metaphase. Right, Quantification of cells in pro-metaphase. Error bars represent s.d. (n=12); * two tailed p value=0.006 using Student T test. […]"}, "HCT-116 cells": {"tested_on": "HCT-116 cells", "assay": "G2/M arrest in HCT-116 cells expressing WT or S338D CRAF", "assay_type": "cell-based, human", "conditions": "1 μM KG5, 18 hours"}, "CRAF": {"target": "CRAF (Homo sapiens, UniProt P04049)", "sequence (P04049 whole entry)": "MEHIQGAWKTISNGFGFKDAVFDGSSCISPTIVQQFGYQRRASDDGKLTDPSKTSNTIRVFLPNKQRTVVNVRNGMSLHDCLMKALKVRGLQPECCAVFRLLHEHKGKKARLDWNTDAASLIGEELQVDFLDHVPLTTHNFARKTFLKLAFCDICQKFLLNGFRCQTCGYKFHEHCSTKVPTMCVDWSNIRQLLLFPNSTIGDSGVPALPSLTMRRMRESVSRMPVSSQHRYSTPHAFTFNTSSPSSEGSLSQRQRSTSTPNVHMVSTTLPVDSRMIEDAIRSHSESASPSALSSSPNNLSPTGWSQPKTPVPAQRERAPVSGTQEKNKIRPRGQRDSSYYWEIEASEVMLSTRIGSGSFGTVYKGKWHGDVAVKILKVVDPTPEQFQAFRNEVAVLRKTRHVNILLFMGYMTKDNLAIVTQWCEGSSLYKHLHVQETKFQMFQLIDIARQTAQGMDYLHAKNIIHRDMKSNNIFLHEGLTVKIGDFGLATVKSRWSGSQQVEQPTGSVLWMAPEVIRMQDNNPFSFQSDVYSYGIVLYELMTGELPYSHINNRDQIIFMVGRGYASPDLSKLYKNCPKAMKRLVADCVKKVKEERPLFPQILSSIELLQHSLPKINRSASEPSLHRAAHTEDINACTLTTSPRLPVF", "assay": "Phospho-S338 CRAF immunoblot in XPA-1 cells", "assay_type": "cell-based", "set-up": "total CRAF and total MEK of lysates from XPA-1 cells treated with PD0325901, Sorafenib, L-779450, PLX4720, KG5 or KG1; endogenous in cells; host or cells: XPA-1", "experimental": "FIGS. 6 and 7 illustrate immunoblot analysis of CRAF immunoprecipitated from XPA-1 cells treated with KG5 and KG38.\nFIG. 13 illustrates immunoblot analysis of phospho-5338 CRAF, phospho-MEK, total CRAF and total MEK of lysates from XPA-1 cells treated with PD0325901, Sorafenib, L-779450, PLX4720, KG5 or KG1.\nImmunoprecipitation and Immunoblot Analysis Cells were lysed in either NP40 lysis buffer (150 mM NaCl, 50 mM Tris Base pH 7.4, 1% NP40) or RIPA buffer (50 mM Tris pH 7.4, 100 mM NaCl, 0.1% SDS) supplemented with complete protease inhibitor mixture (Roche), 50 mM NaF and 1 mM Na3VO4 and centrifuged at 13,000×g for 10 min at 4° C. Protein concentration was determined by BCA assay. […] of protein were immunoprecipitated with […] of anti-Flag (Sigma), anti-CRAF (BD Pharmingen), anti-Plk1 (Abcam), anti-γ-Tubulin (sigma) or anti-cenpF (Santa Cruz) antibodies overnight at 4° C. followed by capture with 25 μl of protein A/G (Pierce). Beads were washed five times, eluted in boiling Laemmli buffer, resolved on 10% SDS-PAGE and immunoblotting was performed with anti-Plk1 antibody (Abcam), anti-CRAF antibody (BD Pharmingen), anti-Aurora A (Abcam), anti-phospho-S338 CRAF (Cell Signaling), anti-phospho-T210 Plk1 or anti-phospho-T288 Aurora A (Cell signaling) diluted 1:1000. For immunoblot analysis, […] of protein was boiled in […]"}}, "note": "Entries after “also recorded” stand apart in the source; their conditions may differ.", "data": [{"molecule": "CSc1nc(N)cc(Oc2ccc(-c3nnc(Nc4cccc(C(F)(F)F)c4)[nH]3)cc2)n1", "note": "[KG5]", "values": [{"measurement": "cells at pro-metaphase in orthotopic breast tumor tissues", "setting": "[1]", "result": "accumulation of cells at pro-metaphase"}, {"measurement": "G2/M arrest in cells expressing phospho-mimetic S338D CRAF", "setting": "HCT-116 cells", "result": "showed resistance to KG5"}, {"measurement": "serine 338 phosphorylation on CRAF", "setting": "CRAF", "result": "prevent; also recorded: inhibits phosphorylation of CRAF on serine 338"}]}]}
